# Columns and labels:
# P31/Fuj cells [1] = experiment: Phosphoproteomics (LC-MS/MS) and kinase network analysis of treated P31/Fuj cells
# Protocol: To study ATRA effect over the phosphoproteome, P31/Fuj cells (10×10^6 cells at 0.5×10^6 cell/mL) were seeded in T75 flask and treated with either Et-OH, 1 μM ATRA or 10 μM ATRA for 5 days. […] For both experiments, cells were collected by centrifugation (1500 rpm for 5 min at 5° C.), then cell pellets were washed twice with ice cold PBS supplemented with phosphatase inhibitors (1 mM Na3VO4, 1 mM NaF) and stored at −80° C. Pellets were processed for phosphoproteomics analysis as indicated below.
# In brief, cell pellets were lysed in 300 μL of urea buffer (8 M urea in 20 mM HEPES, pH 8.0, supplemented with 1 mM Na3VO4, 1 mM NaF, 1 mM Na4P2O7 and 1 mM P-glycerophosphate). Lysates were further homogenized by sonication (30 cycles of 30 s on 30 s off; Diagenode Bioruptor® Plus) and insoluble material was removed by centrifugation. Protein was quantified using BCA (Thermo Fisher Scientific). Then, 500 μg of protein were subjected to cysteine alkylation using sequential incubation with 10 mM dithiothreitol (DDT) and 16.6 mM iodoacetamide (IAM) for 1 h and 30 min, respectively, at 25° C. with agitation. Trypsin beads (50% slurry of TLCK-trypsin; Thermo Fisher Scientific; Cat. #20230) were equilibrated with 3 washes with 20 mM HEPES (pH 8.0), the urea concentration in the protein suspensions was reduced to 2 M by the addition of 20 mM HEPES (pH 8.0), 100 μL of equilibrated trypsin beads were added and the samples were incubated overnight at 37° C. Trypsin beads were removed by centrifugation (2000×g at 5° C. for 5 min) and the resulting peptide solutions were desalted through Oasis HLB cartridges (Waters) following the manufacturer's indications. Briefly, cartridges were set in a vacuum manifold device and the pressure was adjusted to 5 mmHg. Then, cartridges were conditioned with 1 mL acetonitrile (ACN) and equilibrated with 2.5 mL of wash solution (0.1% trifluoroacetic acid (TFA), 2% ACN). Peptides were loaded in the cartridges and washed with 1 mL of wash solution. Finally, peptides were eluted with 500 μL of glycolic acid buffer 1 (1 M glycolic acid, 5% TFA, 50% ACN). Enrichment of phosphorylated peptides was performed with TiO2 Beads (GL Sciences). The eluents were normalized to 1 mL with glycolic acid buffer 2 (1 M glycolic acid, 5% TFA, 80% ACN) and incubated with 50 μl of TiO2 buffer (50% slurry in 1% TFA) for 5 min at room temperature. TiO2 beads were packed by centrifugation into empty spin columns (Glygen Corporation; Cat. TT2EMT) previously washed with ACN. TiO2 beads were sequentially washed by centrifugation (1500×g for 3 min) with 100 μL of glycolic acid buffer 2, ammonium acetate solution (100 mM ammonium acetate in 25% ACN) and twice with neutral solution (10% ACN). For phosphopeptide elution, spin tips were transferred to fresh tubes, 50 μL of elution solution (5% NH4OH, 7.5% ACN) were added and tips were centrifuged at 1500×g for 3 min. The elution step was repeated a total of 4 times. Finally, samples were snap frozen, dried in a SpeedVac and phosphopeptide pellets were stored at −80° C.
# P31/Fuj AML cells = experiment: Sequential treatment of P31/Fuj cells (ATRA or LSD1 inhibitor 5 days, then MEKi 3 days; also co-treatment and reverse treatment): cell viability, cell number, apoptosis, CDI; assay type: cell-based
# Protocol: The Bliss independence model was used to derive coefficients of drug interaction (CDI) values, where CDI <1 indicates significant priming by the […] (synergistic effect).
# For the proliferation/viability assays, cells were seeded in T75 flasks (0.5×10^6 cells/mL of RPMI/FBS medium) and exposed for 5 days to either vehicle or epigenetic modifier. Unless otherwise specified, the final concentration for GSK2879552 (LSD1i), […] (EZH2i), pinometostat (DOT1Li) and ATRA was 1 μM while for decitabine (DNMTAi) and vorinostat (HDACi) was 100 nM; all epigenetic inhibitors were diluted in DMSO, while ATRA was diluted in Et-OH. Vehicle concentration was kept at 0.1%. […] The final concentration of DMSO was kept at 0.1%. Finally, cells were transferred to 96-well plates (100 μL per well in 3 technical replicates per condition) and cell viability and proliferation were assessed using Guava and ApoTox-Glo Triplex analyses, as indicated below.
# For Guava analysis, cells were stained with Guava ViaCount reagent (Luminex #4000-0040) in 96-well plates, by mixing 150 μL of cell suspension with 75 μL of reagent, and left to incubate for a minimum of 10 minutes in the dark, after which they were processed through a Guava easyCyte flow cytometer (Luminex #0500-5005). Flow cytometry data were analysed using CytoSoft (v2.5.7). Viability and cell number values were expressed relative to vehicle control.
# For ApoTox-Glo analysis, cell suspensions were transferred to opaque 96-well plates (100 μL per well) and viability and apoptosis measured using ApoTox-Glo Triplex Assay (Promega #G6320). 20 μL of Viability/Cytotoxicity reagent (containing GF-AFC and bis-AAF-R110 substrates) were added to each well, then incubated at 37° C. for 1 hour. Live cell and cytotoxicity outputs were measured on FLUOstar Omega microplate reader (BMG Labtech). To obtain the live cell output, fluorescence was measured at 355EX/520EM (wavelengths in nm); for the cytotoxicity output, fluorescence was measured at 485EX/520EM. Following this, 100 μL of Caspase-Glo 3/7 reagent were added to each well and incubated at 25° C. for 1 hour. Luminescence was then measured on FLUOstar Omega microplate reader (BMG Labtech). The fluorescence and luminescence signals thus obtained were corrected to the respective background controls (culture medium with no cells). Relative cell number values were obtained by normalising live cell outputs to vehicle control. Apoptosis values were obtained by dividing luminescence outputs to the respective live cell outputs, then normalising to vehicle control.
# The extent of drug interaction was calculated in Microsoft Excel 2016 using the CDI formula AB/(A*B), where AB is the normalized reduction in cell viability of the sequential treatment, and A and B are the effects of single treatments. Statistical significance of CDI values for each AML sample was determined using a one sample t-test (base R package) with the null hypothesis being that the mean Log2(CDI) equals 0.
# acute myeloid leukemia = settings: Smitheman et al. (2019); cited from earlier work
# [2] = results of clinical trials; unselected AML patient populations; cited from earlier work
# P31/Fuj cells [3] = experiment: Subcellular (cytosolic and nuclear/organelle) proteomics of LSD1i-treated P31/Fuj cells; assay type: cell-based
# Protocol: Isolation of nuclear/organelle and cytosolic fractions for proteomic analysis was carried out as described below.
# The isolation of cytosolic and nuclear/organelle proteins was performed as follows. Cells (10×10^6 cells per replicate) were resuspended in 1 mL hypotonic lysis buffer (containing 10 mM Tris-HCl pH 8.0, 1 mM KCl, 1.5 mM MgCl2, 1 mM DTT, 1 mM Na3VO4 and 1 mM NaF) and incubated at 4° C. for 30 minutes on a rotator. Nuclei/organelles were then pelleted (10,000×g, 10 min, 4° C.), after which the supernatant (cytosolic fraction) was transferred to fresh tubes. The nuclear/organelle fraction was further processed for proteomic analysis by adding 8M urea buffer as indicated above.
# Proteins in the supernatant were isolated by methanol/chloroform precipitation as follows. Methanol was added to the protein solution (at 4×initial volume), followed by chloroform (1×initial volume) and ddH2O (3×initial volume), vortexing after each addition. Samples were centrifuged for 2 min, 12,000×g, 4° C., and the top aqueous layer was removed. Additional methanol was added (4×initial volume) and samples vortexed. Samples were centrifuged for 3 min, 12,000×g, 4° C., and the supernatant removed. Protein pellets were dried briefly at RT, then resuspended in 8M urea buffer. Homogenisation, cysteine alkylation and tryptic digestion of the nuclear and cytosolic fractions were carried out as described above. Desalting was performed through C18 spin columns (Glygen Corporation, Cat. TT2C18) following the manufacturer's indications. Briefly, columns were equilibrated twice with 200 μL 70% ACN, and washed twice with 200 μL 1% ACN. Peptide samples were loaded onto the columns, then washed twice with 200 μL 1% ACN, with spinning. […] Columns were spun for 2 min at 1,500×g, 4° C. each time they were loaded.
# [4] = LSD1i by itself, 2.5 z-score threshold (FIG. 6C)
# [5] = LSD1i relative to control (FIGS. 6 C, D, 18B)
# [6] = LSD1i treatment, P31/Fuj (FIG. 19A)
# [7] = LSD1i and MEKi co-treatment 3 days, P31/Fuj (FIG. 10B)
# [8] = 0.5 μM LSD1i 5 days versus control (FIG. 21A)
# [9] = 0.5 μM LSD1i 5 days versus control (FIG. 21B)
# [10] = LSD1i, pathway analysis of proteomics data (FIG. 21 C, D)
smiles,measurement,setting,value
O=C(O)c1ccc(CN2CCC(CN[C@@H]3C[C@H]3c3ccccc3)CC2)cc1 [GSK2879552],phosphorylation sites affected by kinase inhibitors after LSD1i pre-treatment versus vehicle,"P31/Fuj cells [1]; 0.5 μM LSD1i 5 days, then 1 μM kinase inhibitor 1 h, P31/Fuj (FIG. 6B)",fewer phosphorylation sites
same,c-Myc phosphorylation at S62,"P31/Fuj cells [1]; LSD1i 5 days, P31/Fuj (FIG. 6F)",reduced
same,kinase activities (node centrality),P31/Fuj cells [1]; LSD1i by itself relative to control (FIG. 6D),decreased more kinase activities than it increased
same,number of network axes with decreased enrichment,P31/Fuj cells [1]; [4],18
same,number of network axes with increased enrichment,P31/Fuj cells [1]; [4],6
same,"effect of PI3K, AKT, MEK and ERK inhibitors in increasing phosphorylation of epigenetic regulators and histones, CDKs, cyclins and DNA repair proteins","P31/Fuj cells [1]; LSD1i pre-treatment (FIG. 6H, 19 D, E)",blunted
same,circuitries containing AKT and MTOR,P31/Fuj cells [1]; [5],decrease
same,circuitries with PKCI and MEK1 (MAP2K1),P31/Fuj cells [1]; [5],increased
same,AHNAK pS5110 phosphorylation,P31/Fuj cells [1]; [6],increased
same,"PI3K/AKT pathway markers GSK3B pS13 and RPS6 p236, and MAPK pathway marker MAPK3 (ERK1) pT202",P31/Fuj cells [1]; [6],decreased
same,kinase inhibitor-induced increase in phosphorylation of LSD1/KDM1A at T95 and S93,"P31/Fuj cells [1]; control cells versus LSD1i pre-treated cells (FIG. 6G, 19A)",not in cells pre-treated with LSD1i
same,"Log2 CDI, reverse treatment","P31/Fuj AML cells; 3-day pre-treatment with MEKi followed by 5-day LSD1i, additive to strongly antagonistic, P31/Fuj",> 0
same,"Log2 CDI based on cell number and apoptosis, 5+3 days sequential treatment","P31/Fuj AML cells; LSD1i 5 days then MEKi 3 days, all concentrations above 10 nM, strongly synergistic, P31/Fuj (FIG. 10A)",below 0
same,sensitisation to the effects of MEKi (suppressing proliferation and inducing apoptosis),"P31/Fuj AML cells; LSD1i 5 days then MEKi 3 days, dose-dependent manner, P31/Fuj cells (FIG. 2E)",sensitised P31/Fuj cells to the effects of MEKi
same,"CDI for apoptosis, 3-day co-treatment",P31/Fuj AML cells; [7],mildly synergistic
same,"CDI for proliferation, 3-day co-treatment",P31/Fuj AML cells; [7],near additive
same,differentiation and cytotoxic response in combination with all-trans retinoic acid (ATRA),acute myeloid leukemia,enhances differentiation and promotes cytotoxic response
same,clinical tolerability as single agent,[2],has side effects
same,number of proteins decreasing in cytosolic fraction,P31/Fuj cells [3]; [8],379
same,number of proteins increased in cytosolic fraction,P31/Fuj cells [3]; [8],101
same,number of proteins decreasing in nuclear/organelle fraction,P31/Fuj cells [3]; [9],334
same,number of proteins increased in nuclear/organelle fraction,P31/Fuj cells [3]; [9],293
same,"expression of MAPK pathway enzymes including NRAS, KRAS, MEK1 and P90-S6K (RPS6KA1 isoform)","P31/Fuj cells [3]; LSD1i 5 days (FIG. 7B, 22A)",increase
same,"expression of PI3K p110δ catalytic isoform, AKT2, and RAC1","P31/Fuj cells [3]; LSD1i 5 days (FIG. 7B, 22A)",decrease
same,"proteins involved in the PI3K, insulin and c-MYC signaling pathways",P31/Fuj cells [3]; [10],decrease
same,α and β-integrin signaling proteins,P31/Fuj cells [3]; [10],increase

# From US20240418723A1, “SEQUENTIAL TREATMENTS AND BIOMARKERS TO REVERSE RESISTANCE TO KINASE INHIBITORS” (Queen Mary University of London, priority 2021, published 2024)
